`CNc1ccc2c(c1)nc(CCc1ccc(C#N)cc1)n2C` showed a melting point of 155 to 158 °C. Work on `COC(=O)NCCc1cccc(-c2ccnc3c(C#N)cnn23)c1` yielded a melting point of 162 to 164 °C. Compound `CCc1ccc(NC(=O)OCc2ccccc2)nc1` has a melting point of 125 to 127 °C. With `N#CC1CN1C(=O)CN1C(=O)c2ccccc2C1=O` (stereo not drawn) the melting point was 126 to 128 °C. For `COc1cc(N)c(Cl)cc1C(=O)N[C@H]1CCN(CCNc2nccs2)C[C@H]1OC` (relative stereo), the melting point was 141 °C. Work on `Nc1nc(Cc2cccs2)no1` yielded a melting point of 132 to 133 °C. With `CC(=O)N(CCCc1ccccc1)[C@H]1CC[C@H](c2ccc(OCc3ccccc3)cc2)CC1` the melting point was 80 to 81.5 °C. `NNc1nncc(-c2ccccc2F)n1` showed a melting point of 171 to 174 °C. `COCO[C@H]1C(=O)Nc2ccccc2S[C@H]1c1ccc(OC)cc1` gave a melting point of 125 to 126 °C. For `Oc1cc(-c2ncnc(C(F)F)c2Cl)c(F)cc1Cl`, the melting point was 141 to 143 °C. Work on `O=C(O)CN1C(=O)[C@@H](N[C@@H](CCC2CCCCC2)C(=O)O)COc2ccccc21` yielded a melting point of 202 to 205 °C. In the case of `CN1CCC(c2cccc(C(F)(F)F)c2)(C(C)(C)O)CC1`, the melting point is reported as 111 to 112 °C. With `CCn1ncc2c(N)c3c(nc21)CCc1ccccc1C3=O` the melting point was 132 to 133 °C. In the case of `Clc1ccc2sc(=NCCc3c[nH]c4ccccc34)sc2c1`, the melting point is reported as 145 to 147 °C. Compound `CCC1(Cl)Cc2cc(OCC(=O)O)c(Cl)c(Cl)c2C1=O` (stereo not drawn) has a melting point of 185 to 187 °C. `CC(C)(C)C12OOC1(c1cc3cc(O[Si](C)(C)C(C)(C)C)ccc3o1)OCC2(C)C` (stereo not drawn) gave a melting point of 117 to 118 °C. `CC(C)(C)c1cc(C(C)(C)C)c(OP2OCCN2C(C)(C)C)c(C(C)(C)C)c1` (stereo not drawn) showed a melting point of 73 to 74 °C. `O=C(O)Cc1ccc(-n2cc(Cl)cn2)c(Cl)c1` gave a melting point of 132 to 133 °C. In the case of `CC(NC(=O)OC(C)(C)C)c1ccc(NS(C)(=O)=O)c(C#Cc2ccccc2)c1` (stereo not drawn), the melting point is reported as 157 to 158 °C. Work on `O=C(O)c1cnncc1C(=O)c1cc(F)ccc1F` yielded a melting point of 202 to 205 °C. Compound `COc1ccc(-c2ccc(NCc3ccccc3)nn2)cc1OC1CCCC1` has a melting point of 116 °C. Compound `COc1ccc(C(=O)Cc2cccc(C(F)(F)F)c2)cc1` has a melting point of 94 to 95 °C. Work on `CC(C)(C)OC(=O)[C@@H]1CS[C@H](c2cccc(O)c2)N1C(=O)CNC(=O)Nc1cccc(C(=O)O)c1` yielded a melting point of 150 °C. `OC(c1ccc(C(F)(F)F)cc1)c1ccc(C(F)(F)F)cc1` showed a melting point of 80 °C. Work on `COC1CN(CC2CCCO2)CCC1NC(=O)c1cc(Cl)c(N)c2c1OCCC2` (stereo not drawn) yielded a melting point of 158 °C. `CCCNC(=O)Cn1c(-c2ccc(Cl)cc2)nc2cccnc21` showed a melting point of 220 to 221 °C. In the case of `O=c1cc(-c2ccc(O)c(-c3cccs3)c2)oc2ncccc12`, the melting point is reported as 274 to 275 °C. In the case of `NC(=O)c1ccc2c(c1)C(=O)N1CCC[C@H]1CO2`, the melting point is reported as 287 to 290 °C. Work on `CN1CCN(c2ccc(-c3cc(-c4c(-c5ccccn5)nc5ccccn45)ccn3)cc2)CC1` yielded a melting point of 150 °C. `CCc1cc(C(=O)O)c(O)cc1C` gave a melting point of 152 to 154 °C. Work on `O=c1[nH]cnc2sccc12` yielded a melting point of 256 to 258 °C. `COc1ccccc1C(=O)Nc1ccc(COc2ccc3c(c2)CCC(CN(C)C)C3)cc1` (stereo not drawn) showed a melting point of 106 to 108 °C. `CCCCCCCCc1cc2c(cc1/C(C)=C/c1ccc(C(=O)OC)cc1)C(C)(C)CCCS2(=O)=O` gave a melting point of 85 to 86 °C. `Clc1ccc2c(c1)C(n1ccnc1)c1ccccc1CS2` (stereo not drawn) showed a melting point of 175 to 176 °C. For `CN(C)Cc1cccc(-c2cc3c(Nc4ccc(F)c(Cl)c4)ncnc3[nH]2)c1`, the melting point was 218 to 220 °C. With `CC1(C)CCC(=Cc2ccc(Cl)cc2)C(=O)C1` the melting point was 85 to 86 °C. In the case of `CC(=O)c1cc(-c2ccncc2)sc1Oc1cc(F)ccc1F`, the melting point is reported as 119 to 121 °C. For `CCOC(=O)CNC(=O)CCCCCNC(=O)c1ccc(OC)cc1`, the melting point was 106 to 107 °C. In the case of `Clc1ccc(CO[C@H]2CO[C@@H](c3ccccc3)OC2)cc1`, the melting point is reported as 116 to 117 °C. For `Cc1cc(-c2cccc(Cl)c2)nn2cnnc12`, the melting point was 173 to 176 °C. `O=S(CCl)c1ccc(-n2cnnn2)cc1` (stereo not drawn) gave a melting point of 147 to 149 °C. In the case of `CC12CCC(=O)C=C1CCC1C2CCC2(C)C(OC(=O)CCl)CCC12` (stereo not drawn), the melting point is reported as 125 to 126 °C. Work on `COc1cc(F)c(C=O)cc1O` yielded a melting point of 153 to 154 °C. In the case of `Cc1ccc2c(c1)[C@H](Nc1ncnc(NC(=O)C(F)(F)F)n1)[C@@H](C)C2`, the melting point is reported as 55 to 58 °C. Work on `CCOCc1nc2c(N)nc3ccccc3c2n1CCCC(=O)N1CCOCC1` yielded a melting point of 201 to 203 °C. With `CCc1nn(C2CN(C(C)C)C2)c(C(N)=O)c1NC(=O)c1cc(S(C)(=O)=O)ccc1OCC(C)C` the melting point was 185 to 189 °C. `COc1ccc(-c2nc(C(=O)OC(C)(C)C)c(-c3ccncc3)[nH]2)cc1` showed a melting point of 211 to 212 °C. For `O=C(Oc1ccc([N+](=O)[O-])cc1)OC1CCN(C(=O)Oc2ccc(Oc3ccccc3)cc2)CC1`, the melting point was 108 to 109 °C. In the case of `CC(=O)NCC1CN(Cc2ccccc2)CCO1` (stereo not drawn), the melting point is reported as 110 to 111 °C. Work on `CSc1nn2c(N)cc(C)nc2c1S(=O)(=O)c1ccc(Cl)cc1` yielded a melting point of over 230 °C. Compound `C=Cn1cc(C(=O)O)c(=O)c2cc(F)c(F)c(F)c21` has a melting point of 186 to 187 °C. Compound `O=C(OCCN1CCCC1)c1c[nH]c2ccccc12` has a melting point of 145 to 146 °C. Work on `CC(C)(C)OC(=O)N1CCC(S(=O)(=O)Cl)CC1` yielded a melting point of 84.6 to 85.7 °C. Compound `Cc1cc(F)ccc1-c1nc(NC2CCOCC2)nc2c1ccc(=O)n2-c1ccccc1F` has a melting point of 211 to 212 °C. `COC(CN(C)C(=O)Nc1nnc(C(C)Oc2ccccc2Cl)s1)OC` (stereo not drawn) gave a melting point of 101 to 104 °C. Work on `Cc1c(C(=O)CC(C)(C)C)c2ccccc2n1CCCNS(C)(=O)=O` yielded a melting point of 139 to 142 °C. `Cc1cc(C2c3cc4c(cc3CC(C)NN2C(=O)NC(C)c2ccccc2)OCO4)ccc1[N+](=O)[O-]` (stereo not drawn) gave a melting point of 202 to 204 °C. `CC1(C)SC(c2ccc3c(c2)CCC3)NC1C(=O)O` (stereo not drawn) gave a melting point of 140 to 142 °C. For `CC(C)C(=O)NC1CCc2c(c3cc(Br)ccc3n2Cc2cccc(F)c2)C1` (stereo not drawn), the melting point was 177 to 179 °C. `COc1cc(Oc2ccc(S(C)(=O)=O)cn2)cc2cc(C3=NCC(CC(C)(C)O)S3)[nH]c12` (stereo not drawn) showed a melting point of 171 to 173 °C. For `COc1ccc(CNc2ncnc(Cl)c2N)cc1`, the melting point was 187 to 188 °C. In the case of `COc1ccc(C2C3=C(COC3=O)Nc3ccc4cc(C)[nH]c4c32)cc1O` (stereo not drawn), the melting point is reported as 293 to 294 °C. With `CC(=O)Oc1c(C)c(C=O)nc2ccccc12` the melting point was 132 to 133 °C. In the case of `Cc1c(C2=CCC(Cc3ccccc3)(N(C)C)CC2)[nH]c2ccc(OC(F)(F)F)cc12` (stereo not drawn), the melting point is reported as 74 to 75 °C. `CNC1C(O)CC2C3CCC4CC(=O)CCC4(C)C3CCC21C` (stereo not drawn) showed a melting point of 167 to 174 °C. Work on `CS(=O)(=O)Nc1nc(-c2ccc(NS(C)(=O)=O)c(Sc3ccc(F)cc3F)c2)cs1` yielded a melting point of 159 to 161 °C. With `Oc1ccc(C2CCC(NCC(O)Cc3ccccc3)CC2)cc1` (racemic) the melting point was 52 to 57 °C. Work on `COc1ccc2c(c1)Sc1cc(OC)ccc1N2CCC#N` yielded a melting point of 111 to 113 °C. In the case of `Cc1cc(N)n(-c2ccc(Cl)cc2C)n1`, the melting point is reported as 86 to 87 °C. `COc1ccc(C(=O)Nc2ccccc2)cc1NS(=O)(=O)c1cccc(Cl)c1` gave a melting point of 197 to 199 °C. `Cc1cscc1NC(=S)Nc1cccc(Cl)c1N` showed a melting point of 298 to 305 °C. `CCOC(=O)Cc1cccc(-c2nc(COc3ccc(CO)cc3OC)c(C)o2)c1` showed a melting point of 96 to 98 °C. Compound `COc1ccnc(N2CCN(C(=O)c3ccco3)CC2)n1` has a melting point of 85 to 86 °C. In the case of `Cc1ccccc1Nc1nc(N(C)c2ccccc2)c2cccc(OCCCN(C)C)c2n1`, the melting point is reported as 77 to 79 °C. For `Nc1c([N+](=O)[O-])cc(C(F)(F)F)cc1[N+](=O)[O-]`, the melting point was 142 to 144 °C. `COc1ccc(Oc2ccc3c(c2)SC(c2ccc(OC)cc2)C(O)C(=O)N3)cc1` (stereo not drawn) showed a melting point of 213 to 214 °C. In the case of `CC1CC(=O)NN=C1c1ccc(-n2ccc(C=O)c2)cc1` (stereo not drawn), the melting point is reported as 191 to 192 °C. Work on `Cn1ccc2ccccc2c(=NO)c1=O` yielded a melting point of 225 to 226 °C. Work on `OC(COc1ccc(-c2ccc(I)cc2)cc1)CN1CCCC1` (stereo not drawn) yielded a melting point of 123 to 124 °C. In the case of `O=c1[nH]n(-c2ccnc(N[C@H]3CC[C@H](O)CC3)n2)c2ccccc12`, the melting point is reported as 264 °C. Compound `Cc1ccc(NC(=O)c2ccc(C(=O)Nc3ccccc3NC(=O)OC(C)(C)C)nc2)cc1Nc1nccc(-c2cccnc2)n1` has a melting point of 186 to 187 °C. Work on `Cc1c(OCc2ccccn2)nn2c(-c3ccccc3)nnc2c1C` yielded a melting point of 185 °C. With `CC(C)(C)C1(O)CCN(CC23CC(c4ccc(Cl)cc42)c2ccc(Cl)cc23)CC1` the melting point was 194 to 196 °C. `Cc1nn(-c2ccc(Cl)cc2)c(=O)[nH]1` gave a melting point of 218 to 219 °C. With `CN(C)S(=O)(=O)c1cc(C(=O)CBr)ccc1Cl` the melting point was 98 °C. In the case of `O=C(Nc1ccc2ccc(Cl)nc2n1)c1cscn1`, the melting point is reported as 325 °C. `CC(=O)N1CCN(Cc2cc(C)c(O)c(C)c2)CC1` gave a melting point of 150 to 151 °C. With `O=S(=O)(c1ccccc1)n1c(-c2c(F)cccc2F)nc2ccccc21` the melting point was 104 to 106 °C. For `O=C1c2c(Cl)c(Cl)c(Cl)c(Cl)c2C(=O)N1c1ccccc1`, the melting point was 251 to 253 °C. In the case of `CC1(C)Oc2cc3nonc3cc2C(N2CCC(Br)CC2=O)C1O` (stereo not drawn), the melting point is reported as 250 to 253 °C. Compound `CC(C)(C)OC(=O)NCCCn1c2c(c3ccc(NC(=O)CC(=O)O)cc3c1=O)C(=O)c1ccccc1-2` has a melting point of 211 to 212 °C. Compound `COc1cc(C(=O)c2c[nH]c(-c3ccc(C)cc3)n2)cc(OC)c1OC` has a melting point of 201 to 203 °C. In the case of `COC(=O)c1ccc2c(c1)C=CC(=O)CO2`, the melting point is reported as 89 to 93 °C. `NNC(=O)c1cn2c(nc1=O)CCC2` gave a melting point of 204 to 206 °C. For `CC(C)c1nc(CCCOCc2ccccc2)[nH]c1Sc1cc(Cl)cc(Cl)c1`, the melting point was 118 to 119 °C. Work on `CC(c1ccc(N2CCCC2)cc1)c1ccc(N2CCCC2)cc1` yielded a melting point of 112 °C. With `COc1ccc(F)c([N+](=O)[O-])c1C` the melting point was 38 to 40 °C. Compound `C=CCNc1nc(NCCCCC)c2scc(C)c2n1` has a melting point of 64 to 65 °C. Work on `Oc1ccc(CBr)cc1-n1nc2ccccc2n1` yielded a melting point of 169 to 171 °C. `O=C(Nc1ccc(N2CCN(C(=O)Nc3ccc(OCCO)cc3C(F)(F)F)CC2)cc1)Nc1nc(C2CC2)cs1` gave a melting point of 120 to 123 °C. Compound `COC(=O)c1ccc(Cn2c(=O)c(C)c3sc(C(=O)NCc4ccc(F)cc4)cn3c2=O)cc1C` has a melting point of 179 to 180 °C. In the case of `COC(=O)c1cc(NC(=N)N)c(NC(C)=O)cc1O`, the melting point is reported as 233 to 234 °C. Work on `COc1cc(Cl)ccc1C(=O)NCCc1nc(-c2ccncn2)cc(=O)n1C` yielded a melting point of 121 to 123 °C.

— a melting point compilation (Tetko et al.; mined from patent text by program, amines drawn as free bases though some values may be those of a salt)
